In ChEMBL document CHEMBL3352112, “Exploiting the therapeutic potential of 8-β-d-glucopyranosylgenistein: synthesis, antidiabetic activity, and molecular interaction with islet amyloid polypeptide and amyloid β-peptide (1-42)” (J Med Chem, 2014):
≈ marks a conversion by molar mass, not a printed value.

Assay: Cytotoxicity against […] HII4E cells after 24 hrs by MTT cell viability assay
Type: cell-based

O=C(N[C@H](CO)[C@H](O)c1ccc([N+](=O)[O-])cc1)C(Cl)Cl [CHLORAMPHENICOL]
IC50: 143 µg/mL (≈ 443 µM)
